Measurements taken from patent publication US20130217664A1, “NOVEL COMPOUNDS USEFUL FOR THE TREATMENT OF DEGENERATIVE AND INFLAMMATORY DISEASES” (priority 2012, published 2013).

How the values were obtained:
[1] = system: BA/F3 cell line; assay: BA/F3 viability assay; conditions: Mus musculus, BaF3, 48 h, read-out: BA/F3 IC50
[2] = biological target: T1, human TYK2 (Homo sapiens, UniProt P29597); assay: TYK2 inhibition assay; type: biochemical; conditions: recombinant human TYK2 catalytic domain, polyGT substrate
T1 construct: catalytic domain (amino acids 871-1187; catalog number 08-147); purchased Carna Biosciences 08-147
T1 sequence (P29597 871-1187): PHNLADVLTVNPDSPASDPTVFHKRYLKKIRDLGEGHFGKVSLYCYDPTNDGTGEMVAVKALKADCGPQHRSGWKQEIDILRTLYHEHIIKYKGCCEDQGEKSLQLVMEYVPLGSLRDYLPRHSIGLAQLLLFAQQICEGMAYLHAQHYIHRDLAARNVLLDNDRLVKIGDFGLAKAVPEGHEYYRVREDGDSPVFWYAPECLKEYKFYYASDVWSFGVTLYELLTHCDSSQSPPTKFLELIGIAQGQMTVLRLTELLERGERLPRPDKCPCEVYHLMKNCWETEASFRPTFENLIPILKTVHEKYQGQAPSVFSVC
Summary of the method: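 Radiometric kinase reaction run 90 min at 30 °C, stopped with phosphoric acid, washed and scintillation-counted.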

[3] = system: CTLL-2 cell line; assay: CTLL2 viability assay; type: cell-based; conditions: Mus musculus, IL-2 dependent CTLL2 viability, 24 h, ATP-lite
Excerpt: The protocol describes the methods to analyse the activity of compounds on their ability to sustain the IL2-dependent viability of CTLL2.
Final DMSO concentration was 0.1%.

[4] = biological target: T2, human JAK1 (Homo sapiens, UniProt P23458); assay: JAK1 inhibition assay (polyGT substrate / Ulight-JAK1 peptide); type: biochemical; conditions: recombinant human JAK1 catalytic domain; polyGT or Ulight-JAK1 peptide assay
T2 construct: catalytic domain, amino acids 866-1154; catalog number PV4774; purchased Invitrogen PV4774
Summary of the method: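 Two formats. PolyGT radiometric: 45 min at 30 °C, stopped with phosphoric acid, counted as cpm. Ulight-JAK1 peptide: 60 min at room temperature, stopped with Eu-anti-phosphotyrosine/EDTA, read as RFU. Percent inhibition normalised to vehicle and 10 μM staurosporine.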

[5] = biological target: T3, human JAK2 (Homo sapiens, UniProt O60674); assay: JAK2 inhibition assay (polyGT substrate / Ulight-JAK1 peptide); type: biochemical; conditions: recombinant human JAK2 catalytic domain; polyGT or Ulight-JAK1 peptide assay
T3 construct: catalytic domain (amino acids 808-1132; catalog number PV4210); GST; purchased Invitrogen PV4210
Summary of the method: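 Radiometric: 0.025 mU JAK2 with 2.5 μg polyGT, 1 μM ATP plus ^33P-ATP in MOPS pH 7.5 buffer, 1% DMSO, 90 min at 30° C.; filter counting. Alternative TR-FRET format with Ulight-JAK1 peptide, 60 min at room temperature, Eu-anti-phosphotyrosine detection.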

[6] = biological target: T4, human JAK3 (Homo sapiens, UniProt P52333); assay: JAK3 inhibition assay; type: biochemical; conditions: recombinant human JAK3 catalytic domain; polyGT substrate
T4 construct: catalytic domain (amino acids 781-1124; catalog number PV3855); purchased Invitrogen PV3855
Summary of the method: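 Radiometric kinase assay: 0.5 ng JAK3 with 2.5 μg polyGT in Tris pH 7.5/MgCl2 buffer, 1 μM ATP plus 0.25 μCi 33P-γ-ATP, 1% DMSO, 45 min at 30 °C, stopped with phosphoric acid.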

T2 sequence (P23458 866-1154): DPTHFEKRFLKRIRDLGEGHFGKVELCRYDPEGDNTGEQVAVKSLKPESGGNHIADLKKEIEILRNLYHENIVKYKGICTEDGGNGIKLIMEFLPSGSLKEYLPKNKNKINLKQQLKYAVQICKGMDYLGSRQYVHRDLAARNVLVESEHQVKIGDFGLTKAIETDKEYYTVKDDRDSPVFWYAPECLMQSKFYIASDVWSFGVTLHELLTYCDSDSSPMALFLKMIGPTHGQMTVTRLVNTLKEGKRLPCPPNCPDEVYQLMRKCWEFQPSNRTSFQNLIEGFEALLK
T4 sequence (P52333 781-1124): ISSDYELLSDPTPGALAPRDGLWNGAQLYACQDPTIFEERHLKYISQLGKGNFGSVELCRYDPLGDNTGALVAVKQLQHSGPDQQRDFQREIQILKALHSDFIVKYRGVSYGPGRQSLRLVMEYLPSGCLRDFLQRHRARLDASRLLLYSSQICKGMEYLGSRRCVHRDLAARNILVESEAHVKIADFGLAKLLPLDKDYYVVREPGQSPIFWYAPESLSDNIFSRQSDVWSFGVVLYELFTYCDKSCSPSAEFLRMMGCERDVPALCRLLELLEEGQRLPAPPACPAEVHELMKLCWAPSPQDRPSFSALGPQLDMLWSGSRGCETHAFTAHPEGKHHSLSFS
T3 sequence (O60674 808-1132): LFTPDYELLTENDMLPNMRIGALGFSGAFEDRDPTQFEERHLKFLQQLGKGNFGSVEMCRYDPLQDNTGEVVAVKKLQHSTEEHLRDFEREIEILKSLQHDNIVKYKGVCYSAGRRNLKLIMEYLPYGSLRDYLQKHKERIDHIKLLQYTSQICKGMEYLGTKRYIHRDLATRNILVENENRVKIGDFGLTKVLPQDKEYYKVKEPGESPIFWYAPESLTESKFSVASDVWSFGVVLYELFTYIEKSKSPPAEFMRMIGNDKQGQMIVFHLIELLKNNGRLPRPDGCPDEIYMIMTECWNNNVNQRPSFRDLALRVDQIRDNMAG

IC50 [1] [nM] | IC50 [2] [nM] | IC50 [4] [nM] | IC50 [5] [nM] | IC50 [6] [nM] | SMILES | IC50 [3] [nM]
> 5000 | > 1000 | 0.01 to 100 | 101 to 500 | 101 to 500 | CN(c1cc2c(cn1)ncn2C)c1ccc(C2CN(CC(F)(F)F)C2)cc1OC(F)F [Compound 364, {2-Difluoromethoxy-4-[1-(2,2,2-trifluoro-ethyl)-azetidin-3-yl]-phenyl}-methyl-(1-methyl-1H-imidazo[4,5-c]pyridin-6-yl)-amine] | > 1000
1000 to 5000 | 101 to 500 | 0.01 to 100 | 0.01 to 100 | 0.01 to 100 | CN(c1cc2c(cn1)ncn2C)c1ccc(C2CN(S(=O)(=O)C(F)F)C2)cc1OC(F)F [Compound 370, {4-[1-(Difluoro-methanesulfonyl)-azetidin-3-yl]-2-difluoromethoxy-henyl}-methyl-(1-methyl-1H-imidazo[4,5-c]pyridin-6-yl)-amine] | > 1000
> 5000 | > 1000 | 0.01 to 100 | > 1000 | > 1000 | CCc1cc(CNC(=O)C2CCC(F)(F)CC2)ccc1N(C)c1cc2c(cn1)ncn2C [Compound 377, 4,4-Difluoro-cyclohexanecarboxylic acid 3-ethyl-4-[methyl-(1-methyl-1H-imidazo[4,5-c]pyridin-6-yl)-amino]-benzylamide] | > 1000
> 5000 | 101 to 500 | 0.01 to 100 | 101 to 500 | 101 to 500 | CCc1cc(CNCC(F)F)ccc1N(C)c1cc2c(cn1)ncn2C [Compound 379] | > 1000
1000 to 5000 | 101 to 500 | 0.01 to 100 | 0.01 to 100 | 101 to 500 | CCc1cc(CNCC(F)(F)F)ccc1N(C)c1cc2c(cn1)ncn2C [Compound 380] | > 1000
1000 to 5000 | 501 to 1000 | 0.01 to 100 | 101 to 500 | 501 to 1000 | CCc1cc(C2CCN(S(C)(=O)=O)CC2)ncc1N(C)c1cc2c(cn1)ncn2C [Compound 383, (4-Ethyl-1′-methanesulfonyl-1′,2′,3′,4′,5′,6′-hexahydro-[2,4′]bipyridinyl-5-yl)-methyl-(1-methyl-1H-imidazo[4,5-c]pyridin-6-yl)-amine] | > 1000
1000 to 5000 | 0.01 to 100 | 0.01 to 100 | 0.01 to 100 | 0.01 to 100 | CCc1cc(C2(C#N)CC2)ccc1N(C)c1cc2c(cn1)ncn2C [Compound 385, 1-{3-Ethyl-4-[methyl-(1-methyl-1H-imidazo[4,5-c]pyridin-6-yl)-amino]-phenyl}-cyclopropanecarbonitrile] | > 1000
> 5000 | 101 to 500 | 0.01 to 100 | 101 to 500 | 101 to 500 | CCc1cc(C(CC#N)NS(C)(=O)=O)ccc1N(C)c1cc2c(cn1)ncn2C (stereo not drawn) [Compound 387, N-(2-Cyano-1-{3-ethyl-4-[methyl-(1-methyl-1H-imidazo[4,5-c]pyridin-6-yl)-amino]-phenyl}-ethyl)-methanesulfonamide] | > 1000
> 5000 | 0.01 to 100 | 0.01 to 100 | 0.01 to 100 | 0.01 to 100 | CCc1cc(C2(CC#N)COC2)ccc1N(C)c1cc2c(cn1)ncn2C [Compound 389, (3-{3-Ethyl-4-[methyl-(1-methyl-1H-imidazo[4,5-c]pyridin-6-yl)-amino]-phenyl}-oxetan-3-yl)-acetonitrile] | > 1000
> 5000 | 0.01 to 100 | 0.01 to 100 | 0.01 to 100 | 0.01 to 100 | CCc1cc(C(C#N)N2CCN(S(C)(=O)=O)CC2)ccc1N(C)c1cc2c(cn1)ncn2C (stereo not drawn) [Compound 390, {3-Ethyl-4-[methyl-(1-methyl-1H-imidazo[4,5-c]pyridin-6-yl)-amino]-phenyl}-(4-methanesulfonyl-piperazin-1-yl)-acetonitrile] | > 1000
> 5000 | 0.01 to 100 | 0.01 to 100 | 0.01 to 100 | 0.01 to 100 | CCc1cc(C(C#N)N2CCOCC2)ccc1N(C)c1cc2c(cn1)ncn2C (stereo not drawn) [Compound 393, {3-Ethyl-4-[methyl-(1-methyl-1H-imidazo[4,5-c]pyridin-6-yl)-amino]-phenyl}-morpholin-4-yl-acetonitrile] | > 1000

More lines, now with the values behind:

SMILES | IC50 [1] [nM] | IC50 [2] [nM] | IC50 [4] [nM] | IC50 [5] [nM] | IC50 [6] [nM] | IC50 [3] [nM]
CN(c1cc2c(cn1)ncn2C)c1ccc(CN(C)S(C)(=O)=O)cc1F [Compound 358, N-{3-Fluoro-4-[methyl-(1-methyl-1H-imidazo[4,5-c]pyridin-6-yl)-amino]-benzyl}-N-methyl-methanesulfonamide] | > 5000 | 101 to 500 | 0.01 to 100 | 0.01 to 100 | 101 to 500 | > 1000
CN(c1cc2c(cn1)ncn2C)c1ccc(C2CN(C(=O)OC(C)(C)C)C2)cc1OC(F)F [Compound 362, 3-{3-Difluoromethoxy-4-[methyl-(1-methyl-1H-imidazo[4,5-]pyridin-6-yl)-amino]-phenyl}-azetidine-1-carboxylic acid tert-butyl ester] | > 5000 | > 1000 | 501 to 1000 | > 1000 | > 1000 | > 1000
CN(c1cc2c(cn1)ncn2C)c1ccc(C2CN(S(=O)(=O)N(C)C)C2)cc1OC(F)F [Compound 369] | 1000 to 5000 | 101 to 500 | 0.01 to 100 | 101 to 500 | 101 to 500 | > 1000
CCc1cc(CNS(=O)(=O)N(C)C)ccc1N(C)c1cc2c(cn1)ncn2C [Compound 375, Dimethyl amino-N-{3-Ethyl-4-[methyl-(1-methyl-1H-imidazo[4,5-c]pyridin-6-yl)-amino]-benzyl}-sulfonamide] | 1000 to 5000 | 101 to 500 | 0.01 to 100 | 0.01 to 100 | 101 to 500 | > 1000
CCc1cc(CNS(=O)(=O)NC)ccc1N(C)c1cc2c(cn1)ncn2C [Compound 376, Methyl amino-N-{3-Ethyl-4-[methyl-(1-methyl-1H-imidazo[4,5-c]pyridin-6-yl)-amino]-benzyl}-sulfonamide] | 1000 to 5000 | 101 to 500 | 0.01 to 100 | 0.01 to 100 | 101 to 500 | > 1000
CCc1cc(CN2CC(C#N)C2)ccc1N(C)c1cc2c(cn1)ncn2C [Compound 381, 1-{3-Ethyl-4-[methyl-(1-methyl-1H-imidazo[4,5-c]pyridin-6-yl)-amino]-enzyl}-azetidine-3-carbonitrile] | > 5000 | 501 to 1000 | 0.01 to 100 | 101 to 500 | > 1000 | > 1000
CCc1cc(CN(CC#N)S(C)(=O)=O)ccc1N(C)c1cc2c(cn1)ncn2C [Compound 388, N-Cyanomethyl-N-{3-ethyl-4-[methyl-(1-methyl-1H-imidazo[4,5-c]pyridin-6-yl)-amino]-benzyl}-methanesulfonamide] | 1000 to 5000 | 0.01 to 100 | 0.01 to 100 | 0.01 to 100 | 0.01 to 100 | > 1000
CCc1cc(C(C#N)N2CC(C#N)C2)ccc1N(C)c1cc2c(cn1)ncn2C (stereo not drawn) [Compound 391, 1-(Cyano-{3-ethyl-4-[methyl-(1-methyl-1H-imidazo[4,5-c]pyridin-6-yl)-amino]-phenyl}-methyl)-azetidine-3-carbonitrile] | 1000 to 5000 | 0.01 to 100 | 0.01 to 100 | 0.01 to 100 | 101 to 500 | > 1000
CCc1cc(C2(CCNS(C)(=O)=O)COC2)ccc1N(C)c1cc2c(cn1)ncn2C [Compound 392, N-[2-(3-{3-Ethyl-4-[methyl-(1-methyl-1H-imidazo[4,5-c]pyridin-6-yl)-amino]-phenyl}-oxetan-3-yl)-ethyl]-methanesulfonamide] | > 5000 | 0.01 to 100 | 0.01 to 100 | 0.01 to 100 | 101 to 500 | > 1000
CCc1cc(C(C#N)N2CCC2)ccc1N(C)c1cc2c(cn1)ncn2C (stereo not drawn) [Compound 394] | 1000 to 5000 | 0.01 to 100 | 0.01 to 100 | 0.01 to 100 | 101 to 500 | > 1000
